ChEMBL document CHEMBL2169808, “Discovery of pyrazole carboxylic acids as potent inhibitors of rat long chain L-2-hydroxy acid oxidase” (Bioorg Med Chem Lett, 2012)

How the values were obtained:
[1] = target: T1, 2-Hydroxyacid oxidase 2 (Rattus norvegicus) (UniProt Q07523); test: Inhibition of rat Hao2-mediated oxidation of 2-hydroxyoctanoic acid assessed as proportionate release of H2O2 at 10 uM
T1 sequence (whole entry): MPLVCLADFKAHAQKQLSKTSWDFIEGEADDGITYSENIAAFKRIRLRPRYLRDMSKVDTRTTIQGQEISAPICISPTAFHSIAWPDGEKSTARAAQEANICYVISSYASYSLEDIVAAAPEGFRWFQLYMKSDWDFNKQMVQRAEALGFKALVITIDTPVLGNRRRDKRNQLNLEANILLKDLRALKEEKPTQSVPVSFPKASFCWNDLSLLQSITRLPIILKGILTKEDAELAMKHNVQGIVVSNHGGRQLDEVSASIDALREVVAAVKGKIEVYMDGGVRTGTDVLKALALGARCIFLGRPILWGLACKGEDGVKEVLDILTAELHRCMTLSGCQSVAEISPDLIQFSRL

[2] = target: T1, 2-Hydroxyacid oxidase 2 (Rattus norvegicus); test: Inhibition of rat Hao2-mediated oxidation of 2-hydroxyoctanoic acid assessed as proportionate release of H2O2 at 1 uM
[3] = target: T2, 2-Hydroxyacid oxidase 2 (Homo sapiens, UniProt Q9NYQ3); test: Inhibition of human Hao2-mediated oxidation of 2-hydroxyoctanoic acid assessed as proportionate release of H2O2
T2 sequence (Q9NYQ3 whole entry): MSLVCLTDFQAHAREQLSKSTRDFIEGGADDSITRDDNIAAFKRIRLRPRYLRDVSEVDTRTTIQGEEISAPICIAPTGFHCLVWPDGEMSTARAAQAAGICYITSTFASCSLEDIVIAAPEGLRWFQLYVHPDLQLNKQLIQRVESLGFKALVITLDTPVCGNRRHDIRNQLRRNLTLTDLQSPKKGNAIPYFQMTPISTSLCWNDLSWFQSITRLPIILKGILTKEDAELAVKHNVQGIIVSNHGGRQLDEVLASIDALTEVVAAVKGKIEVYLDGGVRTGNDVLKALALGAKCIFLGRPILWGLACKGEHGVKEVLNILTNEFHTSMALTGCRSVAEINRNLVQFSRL

[4] = organism: Rattus norvegicus; test: Selectivity ratio of IC50 for rat Hao1 to IC50 for rat Hao2
[5] = target: T3, 2-Hydroxyacid oxidase 2 (Homo sapiens) (UniProt Q9NYQ3); test: Inhibition of human Hao2-mediated oxidation of 2-hydroxyoctanoic acid assessed as proportionate release of H2O2 at 10 uM
T3 sequence (whole entry): T2 sequence (Q9NYQ3 whole entry)

[6] = target: T3, 2-Hydroxyacid oxidase 2 (Homo sapiens); test: Inhibition of human Hao2-mediated oxidation of 2-hydroxyoctanoic acid assessed as proportionate release of H2O2 at 1 uM
[7] = target: T4, 2-Hydroxyacid oxidase 2 (Rattus norvegicus, UniProt Q07523); test: Inhibition of rat Hao2-mediated oxidation of 2-hydroxyoctanoic acid assessed as proportionate release of H2O2
T4 sequence (Q07523 whole entry): T1 sequence (whole entry)

Row | Compound | inhibition [1] [%] | inhibition [2] [%] | IC50 [3] [nM] | Ratio IC50 [4] | inhibition [5] [%] | inhibition [6] [%] | IC50 [7] [nM]
1 | Cc1n[nH]c(C(=O)O)c1-c1cccc(-c2ccc(F)cc2)c1 | 79 | 35 | 950 | – | – | – | –
2 | Cc1n[nH]c(C(=O)O)c1Cc1cc2ccccc2o1 | 87 | 47 | – | > 150 | 66 | 26 | –
3 | Cc1n[nH]c(C(=O)O)c1-c1ccc(-c2ccc(F)cc2)cc1 | 65 | 13 | – | > 150 | 55 | 19 | –
4 | Cc1nn(C)c(C(=O)O)c1Cc1cccc(-c2ccc(F)cc2)c1 | 10 | 4 | – | – | 3 | 5 | –
5 | Cc1n[nH]c(C(=O)O)c1Cc1ccccc1-c1ccc(F)cc1 | 73 | 21 | – | > 150 | 56 | 11 | –
6 | Cc1n[nH]c(C(=O)NS(C)(=O)=O)c1Cc1cccc(-c2ccc(F)cc2)c1 | 3 | 0 | – | – | 8 | 8 | –
7 | Cc1n[nH]c(C(=O)O)c1Cc1ccc(C(=O)O)cc1 | 69 | 40 | – | > 150 | 22 | 3 | –
8 | Cc1n[nH]c(C(=O)O)c1Cc1ccccc1Oc1ccccc1 | 69 | 10 | – | > 150 | 49 | 9 | –
9 | Cc1n[nH]c(C(=O)O)c1-c1ccc(F)cc1 | – | 1 | – | > 150 | 13 | 3 | –
10 | CNC(=O)c1[nH]nc(C)c1Cc1cccc(-c2ccc(F)cc2)c1 | 53 | 9 | – | – | 19 | 7 | –
11 | Cc1n[nH]c(C(=O)O)c1Cc1ccc(C#N)cc1 | 85 | 33 | – | > 150 | 6 | 0 | –
12 | Cc1n[nH]c(C(=O)O)c1CCc1ccc(F)cc1 | 81 | 31 | – | > 150 | 16 | 5 | –
13 | Cc1c(Cc2cccc(-c3ccc(F)cc3)c2)c(C(=O)O)nn1C | 57 | 12 | – | – | 4 | 2 | –
14 | Cc1n[nH]c(C(=O)O)c1Cc1cccc(-c2ccc(OC(F)(F)F)cc2)c1 | – | – | – | > 150 | 34 | 6 | 300
15 | Cc1n[nH]c(C(=O)O)c1Cc1ccc(C(F)(F)F)cc1 | 71 | 35 | – | > 150 | 12 | 9 | –
16 | Cc1n[nH]c(C(=O)O)c1Cc1cccc(C(=O)O)c1 | 60 | 7 | – | > 150 | 0 | 3 | –
17 | Cc1n[nH]c(C(=O)O)c1Cc1cccc(-c2ccc(C(=O)O)cc2)c1 | – | – | – | > 150 | 15 | 3 | 1100
18 | Cc1n[nH]c(C(=O)Nc2nnn[nH]2)c1Cc1cccc(-c2ccc(F)cc2)c1 | 9 | 0 | – | – | 0 | 0 | –
